Results taken from ChEMBL document CHEMBL4020814, “Synthesis, Binding Mode, and Antihyperglycemic Activity of Potent and Selective (5-Imidazol-2-yl-4-phenylpyrimidin-2-yl)[2-(2-pyridylamino)ethyl]amine Inhibitors of Glycogen Synthase Kinase 3” (J Med Chem, 2017).

Tests used:
[1] = Inhibition of human GSK3 using biotin-CREB peptide substrate after 1 hr by scintillation counting method
[2] = Inhibition of GSK3 expressed in CHO-IR cells expressing human insulin receptor assessed as glycogen synthase activation after 30 mins by filter paper assay; type: cell-based, Cavia porcellus
[3] = Stability in rat liver microsomes assessed as half life; type: ADME, microsome
[4] = Stability in dog liver microsomes assessed as half life; type: ADME, Canis lupus familiaris, microsome

Structure (SMILES) | IC50 [1] [nM] | EC50 [2] [nM] | half-life [3] [min] | half-life [4] [min]
Nc1nc(NCCNc2ncc(-c3ncc[nH]3)c(-c3ccc(Cl)cc3)n2)ccc1[N+](=O)[O-] | 31 | 2500 | > 30 | > 30
Nc1nc(NCCNc2ncc(-c3ncc[nH]3)c(-c3cc(F)c(Cl)cc3F)n2)ccc1[N+](=O)[O-] | 19 | 2190 | > 30 | > 30
Nc1nc(NCCNc2ncc(-c3ncc[nH]3)c(-c3ccc(Br)cc3F)n2)ccc1[N+](=O)[O-] | 5 | 500 | > 30 | > 30
Nc1nc(NCCNc2ncc(-c3ncc[nH]3)c(-c3ccc(F)cc3F)n2)ccc1[N+](=O)[O-] | 9 | 5650 | > 30 | > 30
Nc1nc(NCCNc2ncc(-c3ncc[nH]3)c(-c3cc(F)c(Cl)cc3Cl)n2)ccc1[N+](=O)[O-] | 13 | 2280 | > 30 | > 30
Clc1ccc(-c2nc(NCCNc3ccccn3)ncc2-c2ncc[nH]2)c(Cl)c1 | 2860 | – | > 30 | > 30
Nc1nc(NCCNc2ncc(-c3ncc[nH]3)c(-c3ccccc3Br)n2)ccc1[N+](=O)[O-] | 7 | 240 | > 30 | > 30
Nc1nc(NCCNc2ncc(-c3ncc[nH]3)c(-c3cc(F)ccc3F)n2)ccc1[N+](=O)[O-] | 47 | 3000 | > 30 | > 30
COc1cc(Cl)ccc1-c1nc(NCCNc2ccc([N+](=O)[O-])c(N)n2)ncc1-c1ncc[nH]1 | 249 | – | > 30 | > 30
Nc1nc(NCCNc2ncc(-c3ncc[nH]3)c(-c3ccc(Cl)cc3F)n2)ccc1[N+](=O)[O-] | 5 | 1020 | > 30 | > 30
Nc1nc(NCCNc2ncc(-c3ncc[nH]3)c(-c3ccc(F)cc3C(F)(F)F)n2)ccc1[N+](=O)[O-] | 13 | 3300 | > 30 | > 30
Nc1nc(NCCNc2ncc(-c3ncc[nH]3)c(-c3ccc(F)cc3Cl)n2)ccc1[N+](=O)[O-] | 7 | 420 | > 30 | > 30
Nc1nc(NCCNc2ncc(-c3ncc[nH]3)c(-c3cc(F)ccc3Cl)n2)ccc1[N+](=O)[O-] | 32 | – | > 30 | > 30
O=[N+]([O-])c1ccc(NCCNc2ncc(-n3ccnc3)c(-c3ccccc3Cl)n2)nc1 | 24 | 1240 | – | –
Nc1nc(NCCNc2ncc(-c3ncc[nH]3)c(-c3cc(F)c(F)cc3F)n2)ccc1[N+](=O)[O-] | 38 | 6880 | > 30 | > 30
CCOC(=O)c1c(-c2ccc(C(N)=O)cc2)nc(NCCNc2ccc([N+](=O)[O-])cn2)nc1-c1ccc([N+](=O)[O-])cc1 | 150 | 18000 | – | –
CN(C)CCN(C)C(=O)c1cnc(NCCNc2ccc([N+](=O)[O-])cn2)nc1-c1ccc(C#N)cc1 | 140 | > 10000 | – | –
Nc1nc(NCCNc2ncc(N3CCCC3=O)c(-c3ccc(Cl)cc3Cl)n2)ccc1[N+](=O)[O-] | 6 | 1580 | – | –
N#Cc1ccc(-c2nc(NCCNc3ccc([N+](=O)[O-])cn3)ncc2C(=O)NCCO)cc1 | 29 | > 10000 | – | –
N#Cc1ccc(-c2nc(NCCNc3ccc([N+](=O)[O-])c(N)n3)ncc2-c2ncc[nH]2)cc1 | 7 | > 10000 | > 30 | > 30
N#Cc1ccc(-c2nc(NCCNc3ccc([N+](=O)[O-])cn3)ncc2C(=O)N2CCNCC2)cc1 | 417 | > 10000 | – | –
O=[N+]([O-])c1ccc(NCCNc2ncc(-n3ccnc3)c(-c3ccc(F)cc3F)n2)nc1 | 31 | 900 | – | –
CCOC(=O)c1cnc(NCCNc2ccc([N+](=O)[O-])cn2)nc1-c1ccc(C#N)cc1 | 52 | 2200 | – | –
CCOC(=O)c1c(CC)nc(NCCNc2ccc([N+](=O)[O-])cn2)nc1-c1ccc(C#N)cc1 | 40 | 1700 | – | –
COc1ccc(-c2nc(NCCNc3ccc([N+](=O)[O-])cn3)ncc2-n2ccnc2)cc1 | 68 | 2100 | – | –

Structure (SMILES) | IC50 [1] [nM] | EC50 [2] [nM] | half-life [3] [min] | half-life [4] [min]
FC(F)(F)c1ccc(NCCNc2ncc(-c3ncc[nH]3)c(-c3ccc(Cl)cc3Cl)n2)nc1 | 35 | 1240 | > 30 | > 30
Nc1nc(NCCNc2ncc(N3CCNCC3=O)c(-c3ccc(Cl)cc3Cl)n2)ccc1[N+](=O)[O-] | 15 | 5410 | – | –
O=[N+]([O-])c1ccc(NCCNc2ncc(-n3cnnn3)c(-c3ccc(Cl)cc3Cl)n2)nc1 | 15 | 280 | – | –
COc1ccc(-c2nc(NCCNc3ccc([N+](=O)[O-])cn3)ncc2-n2ccnc2)c(OC)c1 | 27 | 1500 | – | –
Nc1nc(NCCNc2ncc(-c3ncc[nH]3)c(-c3ccc(Br)cc3Cl)n2)ccc1[N+](=O)[O-] | 4 | 430 | > 30 | > 30
Nc1nc(NCCNc2ncc(NC(=O)NCCN3CCOCC3)c(-c3ccc(Cl)cc3Cl)n2)ccc1[N+](=O)[O-] | 16 | 3000 | – | –
Nc1nc(NCCNc2ncc(-c3nc(C(F)(F)F)c[nH]3)c(-c3ccc(Cl)cc3Cl)n2)ccc1[N+](=O)[O-] | 34 | 170 | – | –
Cc1cc(Cl)ccc1-c1nc(NCCNc2ccc([N+](=O)[O-])c(N)n2)ncc1-c1ncc[nH]1 | 19 | 810 | > 30 | > 30
Nc1nc(NCCNc2ncc(-c3ncc[nH]3)c(-c3ccccc3Cl)n2)ccc1[N+](=O)[O-] | 12 | 730 | > 30 | > 30
O=[N+]([O-])c1ccc(NCCNc2ncc(-n3ccnc3)c(-c3ccc(N4CCOCC4)cc3)n2)nc1 | 29 | 6100 | – | –
Nc1nc(NCCNc2ncc(-n3cccc(C(F)(F)F)c3=O)c(-c3ccc(Cl)cc3Cl)n2)ccc1[N+](=O)[O-] | 4 | 40 | – | –
Cc1nc(-c2cnc(NCCNc3ccc([N+](=O)[O-])c(N)n3)nc2-c2ccc(Cl)cc2Cl)n(C)c1C | 22 | 320 | – | –
O=[N+]([O-])c1ccc(NCCN(CCN2CCOCC2)c2ncc(-n3ccnc3)c(-c3ccc(Cl)cc3Cl)n2)nc1 | 15 | 280 | – | –
CS(=O)(=O)Nc1cnc(NCCNc2ccc([N+](=O)[O-])c(N)n2)nc1-c1ccc(Cl)cc1Cl | 9 | 390 | – | –
CN(C)C(=O)c1cnc(NCCNc2ccc([N+](=O)[O-])cn2)nc1-c1ccc(C#N)cc1 | 61 | 8700 | – | –
Cc1nc(-c2cnc(NCCNc3ccc([N+](=O)[O-])c(N)n3)nc2-c2ccc(Cl)cc2Cl)[nH]c1C | 3 | 440 | – | –
Cc1ccc(-c2nc(NCCNc3ccc([N+](=O)[O-])cn3)ncc2-n2ccnc2)c(C)c1 | 38 | 4200 | – | –
O=[N+]([O-])c1ccc(NCCN(CCN2CCCC2)c2ncc(-n3ccnc3)c(-c3ccc(Cl)cc3Cl)n2)nc1 | 26 | 370 | – | –
Nc1nc(NCCNc2ncc(-c3ccccn3)c(-c3ccc(Cl)cc3Cl)n2)ccc1[N+](=O)[O-] | 7 | 10 | – | –
CC(C)(C)NC(=O)c1cnc(NCCNc2ccc([N+](=O)[O-])cn2)nc1-c1ccc(C#N)cc1 | 110 | > 10000 | – | –
Cn1ccnc1-c1cnc(NCCNc2ccc([N+](=O)[O-])c(N)n2)nc1-c1ccc(Cl)cc1Cl | 1 | 250 | – | –
Cc1noc(-c2cnc(NCCNc3ccc([N+](=O)[O-])cn3)nc2-c2ccc(C#N)cc2)n1 | 33 | 1500 | – | –
CN1CCCC1CCN(CCNc1ccc([N+](=O)[O-])cn1)c1ncc(-n2ccnc2)c(-c2ccc(Cl)cc2Cl)n1 (stereo not given) | 27 | 110 | – | –
Nc1nc(NCCNc2ncc(CN3CCOCC3)c(-c3ccc(Cl)cc3Cl)n2)ccc1[N+](=O)[O-] | 17 | 840 | – | –
CC(C)[C@H](N)C(=O)Nc1cnc(NCCNc2ccc([N+](=O)[O-])c(N)n2)nc1-c1ccc(Cl)cc1Cl | 14 | 860 | – | –
